# Laboratory results reported in patent publication US20220331348A1, “METHOD OF PREPARING PENTACYCLIC TRITERPENOID SAPONINS AND DRUG COMPOSITION” (CHINA PHARMACEUTICAL UNIVERSITY, priority 2019, published 2022).
# Marks after values point to notes of the source that are not given here.
# Tests used:
# [1] = test system: high fat diet induced NASH model rats; assay: High fat diet (HFD) induced NASH rat model; format: in vivo; design: MDA: unit not given here
# Protocol: Animal: 32 SD male rats of SPF level with 6 weeks old and 220 g were purchased from Beijing Vital River Laboratory Animal Technology Co., Ltd. All the animals maintained 12 h alternative circadian rhythm with free access to food.
# Reagent: the ginsenoside Ro (I) was purchased from Shanghai Boka Chemistry Technology Co., Ltd; obeticholic acid (OCA) was purchased from Jiangsu Vcare PharmaTech Co., Ltd; high fat diets were purchased from Research Diets (D12492, 60 kcal %); and standard feeds were purchased from Research Diets (D12450B, 10 kcal %).
# The rats were randomly divided into 4 groups based on the weight: a control group (CHOW), a high fat diet model group (HFD), a positive drug obeticholic acid (OCA, 5 mg/Kg) group (HFD+OCA) and a ginsenoside Ro (Ro for short, 5 mg/kg) group (HFD+Ro). The control group was fed with the standard feeds and drank water normally; and the rest groups were fed with the high fat diets, drank 10% aqueous sucrose solution for replacing the water and were modeled for 20 weeks.
# After 20 weeks, the control group and the high fat diet model group were given with a CMC-Na solution with the volume fraction of 0.5% intragastrically every day, the HFD+OCA group was given with the obeticholic acid (5 mg/Kg) intragastrically every day, and the HFD+Ro was given with the ginsenoside Ro (5 mg/Kg) intragastrically every day. Administration was conducted for 8 weeks, during which, the control group was given with the standard feeds and drank the water normally, and the rest three groups were given with the high fat diets and drank 10% aqueous sucrose solution. The rats in each group were weighed every day, weights, hairs, feces and activity conditions were carefully observed and recorded.
# The rats were deprived of food but not water for 12 h in advance; and the next morning, blood was taken from eye sockets, the rats were sacrificed, and livers were harvested. Right liver lobule tissues were fixed with 4% paraformaldehyde for HE stained slicing. A part of liver tissues were divided into 3 parts, which were snap-frozen in liquid nitrogen for subsequent detection of other indexes.
# Whole blood was left to still standing for 2 h at room temperature, centrifugation was conducted for 15 min at 3000 rpm, and a serum was collected. 100 Mg of liver tissues were taken and homogenized with 0.9 mL of precooled normal saline, a homogenate was centrifuged for 15 min at 4° C. and 3000 rpm, and a supernatant was taken. Both of the serum and the supernatant were sent to Pathologic Department of Hospital of Integrated Traditional Chinese and Western Medicine in Jiangsu Province for determination of levels of triglyceride (TG), total cholesterol (TC), low density lipoprotein cholesterin (LDL-c) and high density lipoprotein cholesterol (HDL-c) in the serum and levels of the TG and the TC in the supernatant of the homogenate of the liver tissues with the full-automatic biochemical analyzer.
# Pretreated tissues were sent to Google Biotechnology Co., Ltd for preparing HE stained slices and oil red stained slices.
# Liver tissues preserved at −80° C. were put in the liquid nitrogen, about 10 mg of the liver tissues were quickly dissected out, 500 μL of precooled tissue lysate was added, and the tissues were homogenized with a homogenizer and then left to lyse on ice for 30 min; and centrifugation was conducted for 15min at 4° C. and 12000 rpm, […] of a supernatant was sucked to a clean EP tube, […] of the supernatant was taken for BCA protein quantification, […] of 5*loading buffer was added in the rest protein supernatant for denaturing by boiling, SDS-PAGE electrophoresis was conducted subsequently, the proteins were transferred onto a PVDF membrane, then incubation and elution of a relevant antibody were conducted, and finally, a chemiluminescence apparatus was employed for imaging analysis.
# AMPK in Huh-7 cells = assay: Activation activity on AMPK in Huh-7 cells (Western Blot); format: cell-based; conditions: 10 μM, 12 h, Western Blot gray scale, relative to DMSO = 1
# Protocol: The activation activity of a compound on AMPK in Huh-7 cells was detected by using Western Blot.
# Cell culture conditions: Huh-7 cells were cultured in an incubator with 5% CO2 at 37° C. in DMEM complete medium (containing 10% fetal calf serum and 1% streptomycin/penicillin).
# Antibody: anti-AMPK (CST, 2532S); anti-pAMPK (CST, 2535S).
# Western Blot experiment: the influence of the compound on phosphorylation level of the AMPK in the Huh-7 cells was detected: cells with more than 90% cells alive were taken for the experiment. In a 12-well plate, the Huh-7 cells were plated in the plate at 250000 cells per well, the plate was placed in the incubator with 5% CO2 at 37° C. for culture, an original culture medium was discarded after 12 h, a complete medium containing the pentacyclic triterpenoid saponin was added, a final concentration of subject pentacyclic triterpenoid saponin was set to be 10 μM, and an administration time was set to be 12 h. A positive control compound employs AICAR (100 μM), metformin (70 μM) or A-769662 (100 μM). Then proteins were extracted for Western Blot detection.
# Experimental result: a Western Blot experimental result was subjected to gray scale scanning, a p-AMPK/AMPK ratio of negative control DMSO was defined as 1, and a p-AMPK/AMPK ratio of the subject compound was a relative ratio of a negative control group. The larger the numerical value was, the stronger the activation activity of the AMPK of the compound was.
# [2] = test system: human ADPKD cyst lining epithelial cell lines WT9-12; assay: Proliferation of polycystic kidney epithelial cells (CCK-8 method); format: cell-based; conditions: polycystic kidney epithelial cells; 10 μM, 48 h; CCK-8; n = 6
# From the text: Cell and reagent: complete media for human ADPKD cyst lining epithelial cell lines WT9-12 and DMEM were purchased from ATCC Company; fetal calf serums were purchased from Gibco Company; Cell Counting Kit-8 was purchased from DOJINDO Company; Click-iT® EdU Imaging Kits were purchased from Invitrogen™ Thermo Fisher Scientific Company; Caspase -3/CPP32 Colorimetric Assay Kit was purchased from BioVision Company; Annexin V/PI double-staining flow type cell apoptosis detection kits were purchased from Bender Company; and anti-Phospho-(AMPKa, mTOR, p70S6K, 4E-BP1) antibodies were purchased from Cell Signaling Technology Company.
# The influence of 2-DG on proliferation of the polycystic kidney epithelial cells was detected with a CCK-8 method: a DMEM complete medium containing 10% fetal calf serum (FBS) was prepared. The polycystic kidney epithelial cells were cultured in an incubator with 5% CO2 at 37° C. after being recovered, a solution was replaced every other day, the polycystic kidney epithelial cells were passaged every 2-3 days, and the cells were in a growing state of adhering to the wall. After trypsin enzyme digestion, cells were resuspended by using a complete medium, the concentration of a polycystic kidney epithelial cell suspension was regulated to be 3×10^7/L, the polycystic kidney epithelial cell suspension was inoculated to 96-well plate by […] per well for culture for 24 h, and the suspension was replaced by a culture medium containing 0.1% FBS for synchronization for 24 h.
# [3] = HFD NASH rats, summary in words
# [4] = HFD induced NASH model rats, 5 mg/Kg, n = 8
# [5] = serum of HFD induced NASH model rats, 5 mg/Kg, n = 8
substance,measurement,setting,value
madecassoside [(VI)],inflammatory responses of the livers,[1]; [3],inhibit
same,"lipid accumulation, caused by the high fat diets, of the rat livers",[1]; [3],effectively lower
same,Liver TC,[1]; [4],0.472 ± 0.201** mmoL/gprot
same,Liver TG,[1]; [4],1.240 ± 0.213** mmoL/gprot
same,Serum LDL-c,[1]; [4],47.25 ± 7.45* mg/dL
same,Serum TG,[1]; [4],18.83 ± 4.11** mg/dL
same,ALT,[1]; [5],65.86 ± 10.43*** U/L
same,AST,[1]; [5],127.21 ± 9.34* U/L
same,MDA,[1]; [5],11.59 ± 2.88*
same,pAMPK/AMPK ratio,AMPK in Huh-7 cells,2.27
same,Inhibition rate (%),[2],76.3 ± 2.3 %
